Measurements taken from patent US12697302B2, “Tricine and citric acid lipids” (Translate Bio, Inc., priority 2019, dated 2026).

What follows are molecules tested on firefly luciferase (FFL) production in the lung (assay: Delivery of firefly luciferase (FFL) mRNA by intratracheal administration, IVIS imaging of luciferase production in the lung). Settings: lipid nanoparticles with FFL mRNA, cationic lipid, DMG-PEG2000, cholesterol, DOPE; single intratracheal aerosol administration; male CD1 mice; 24 hours after administration.
Type: in vivo
Experimental: Lipid nanoparticle formulations comprising FFL mRNA, cationic lipid, DMG-PEG2000, cholesterol and DOPE were administered to male CD1 mice (6-8 weeks old) by a single intratracheal aerosol administration via a Microsprayer® (50 ul/animal) while under anesthesia. At approximately 24 hours post-dose, the animals were dosed with luciferin at 150 mg/kg (60 mg/ml) by intraperitoneal injection at 2.5 ml/kg. After 5-15 minutes, all animals were imaged using an IVIS imaging system to measure luciferase production in the lung.
`CCCCCCCCOC(=O)CC(CC(=O)OCCCCCCCC)(OC(=O)CCN(C)C)C(=O)OCCCCCCCC` [Compound 1, trioctyl 2-((3-(dimethylamino)propanoyl)oxy) propane-1,2,3-tricarboxylate] was tested, and the “in vivo protein (FFL) production in the lung / luciferase activity” value was “high levels”.
`CCCCCCCCCCCCCCOC(=O)CC(CC(=O)OCCCCCCCCCCCCCC)(OC(=O)CCN1CCCCC1)C(=O)OCCCCCCCCCCCCCC` [Compound 16] was tested, and the “in vivo protein (FFL) production in the lung / luciferase activity” value was “high levels”.
For `CCCCCCCC(=O)OCC(COC(=O)CCCCCCC)(COC(=O)CCCCCCC)N(CC(=O)OCCN(C)C)C(=O)CCCCCCC` [Compound 177, 2-(N-(2-(2-(dimethylamino)ethoxy)-2-oxoethyl)octanamido)-2-((octanoyloxy)methyl) propane-1,3-diyl dioctanoate], the “in vivo protein (FFL) production in the lung / luciferase activity” value was “high levels”.
In the case of `CCCCC/C=C\C/C=C\CCCCCCCCOC(=O)CC(CC(=O)OCCCCCCCC/C=C\C/C=C\CCCCC)(OC(=O)CCCN(C)C)C(=O)OCCCCCCCC/C=C\C/C=C\CCCCC` [Compound 249], the “in vivo protein (FFL) production in the lung / luciferase activity” value is reported as “high levels”.
